Common to all, as to settings: 48 h
The test system of experiment [1] is SEM cells. Nature of the experiment: cell viability relative to DMSO control; higher = less cytotoxic. In short, it runs like this: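 Library compounds in DMSO were pin-dosed in an 11-point threefold series (47 μM to 0.79 nM) onto leukemia cells in 1536-well plates (5 μl). Plates held 500 cells/well of NOMO1 or SEM or 1000 cells/well of P12-Ichikawa, each adapted for at least four passages in each medium. Luminescence was read with CellTiter-Glo One after 48 h at 37°C. Viability means the per-plate percentage relative to DMSO wells, using cell-free wells as background.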

The subject of a further experiment is NOMO1. Nature of the experiment: AUC of viability dose-response curve (% viability x log10 dose units); higher = less sensitive. An outline of the steps: (§1)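 Seeding of medium-adapted leukemia cells was at 500 or 1000 cells/well in 1536-well plates, followed by 48 h at 37°C with library compounds in DMSO at 11 threefold doses from 47 μM to 0.79 nM. CellTiter-Glo One luminescence was normalised per plate to DMSO and cell-free wells and fitted as a four-parameter log-logistic function of log10 dose. Area under the curve was integrated by trapezoidal rule, with curves exceeding full viability scaled and curves failing quality control removed.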

The subject of another experiment is P12-Ichikawa. The experiment is described as above. In short, it runs like this: as §1
For experiment [2], the system named is SEM cells. The experiment is described as above. In short, it runs like this: as §1
Where [3] appears, read: RPMI 5 mM glucose + 10% dialyzed FBS.

For `C[C@@H]1C[C@H]2[C@@H]3\C=C(C)/C4=C/C5=C(C[C@]4(C)[C@H]3[C@@H](O)C[C@]2(C)[C@@]1(O)C(=O)CO)C=N[N]5C6=CC=CC=C6`, the cell viability is 143% with SEM cells [1] (HPLM + 10% dialyzed FBS, 0.000781 µM); 123% with SEM cells [1] (HPLM + 10% dialyzed FBS, 0.00234 µM); 112% with SEM cells [1] (HPLM + 10% dialyzed FBS, 0.00702 µM); 109% with SEM cells [1] (HPLM + 10% dialyzed FBS, 0.0211 µM); 101% in the experiment with SEM cells [1] (HPLM + 10% dialyzed FBS, 0.0632 µM); 71.2% in the experiment on SEM cells [1] (HPLM + 10% dialyzed FBS, 0.19 µM). Further, the cell viability with SEM cells [1] (HPLM + 10% dialyzed FBS, 0.569 µM) was 66.9%; with SEM cells [1] (HPLM + 10% dialyzed FBS, 1.71 µM) it was 64.9%; with SEM cells [1] (HPLM + 10% dialyzed FBS, 5.12 µM), 72.3%; in the experiment on SEM cells [1] (HPLM + 10% dialyzed FBS, 15.4 µM), 57.7%; in the experiment with SEM cells [1] (HPLM + 10% dialyzed FBS, 46.1 µM), 36.4%. The “AUC of viability dose-response curve” value came to 425 with NOMO1 (HPLM + 10% dialyzed FBS); 446 in the experiment on NOMO1 (RPMI 5 mM glucose + 10% FBS); 461 in the experiment with NOMO1 (setting [3]); 308 in the experiment on P12-Ichikawa (HPLM + 10% dialyzed FBS); 280 with P12-Ichikawa (RPMI 5 mM glucose + 10% FBS); 246 in the experiment with P12-Ichikawa (setting [3]). Besides, the “AUC of viability dose-response curve” value in the experiment with SEM cells [2] (HPLM + 10% dialyzed FBS) was determined as 296; with SEM cells [2] (RPMI 5 mM glucose + 10% FBS), 300; with SEM cells [2] (setting [3]), 267.
With `CC[S+](=O)([O-])N1CC(CC#N)(n2cc(-c3ncnc4[nH]ccc34)cn2)C1`, the “AUC of viability dose-response curve” value was 441 with NOMO1 (HPLM + 10% dialyzed FBS); 451 with NOMO1 (RPMI 5 mM glucose + 10% FBS); 471 with NOMO1 (setting [3]); 452 with P12-Ichikawa (HPLM + 10% dialyzed FBS); 454 in the experiment on P12-Ichikawa (RPMI 5 mM glucose + 10% FBS); 443 with P12-Ichikawa (setting [3]). For the same compound, the “AUC of viability dose-response curve” value came to 449 with SEM cells [2] (HPLM + 10% dialyzed FBS), 457 with SEM cells [2] (RPMI 5 mM glucose + 10% FBS) and 450 in the experiment on SEM cells [2] (setting [3]).
Regarding `Nc1cccc2c1C(=O)N(C1CCC(=O)NC1=O)C2=O` (stereo not drawn), the cell viability in the experiment on SEM cells [1] (RPMI 5 mM glucose + 10% FBS, 0.000781 µM) turned out to be 117%; with SEM cells [1] (RPMI 5 mM glucose + 10% FBS, 0.00234 µM), 126%; in the experiment with SEM cells [1] (RPMI 5 mM glucose + 10% FBS, 0.00702 µM) it was 103%; in the experiment on SEM cells [1] (RPMI 5 mM glucose + 10% FBS, 0.0211 µM), 98%; with SEM cells [1] (RPMI 5 mM glucose + 10% FBS, 0.0632 µM) it was 96.9%; in the experiment with SEM cells [1] (RPMI 5 mM glucose + 10% FBS, 0.19 µM), 93.9%. Also, the cell viability turned out to be 76.6% in the experiment on SEM cells [1] (RPMI 5 mM glucose + 10% FBS, 0.569 µM); 72.5% with SEM cells [1] (RPMI 5 mM glucose + 10% FBS, 1.71 µM); 80.2% with SEM cells [1] (RPMI 5 mM glucose + 10% FBS, 5.12 µM); 64.1% in the experiment with SEM cells [1] (RPMI 5 mM glucose + 10% FBS, 15.4 µM); 37.7% in the experiment on SEM cells [1] (RPMI 5 mM glucose + 10% FBS, 46.1 µM). Further, the “AUC of viability dose-response curve” value in the experiment on NOMO1 (HPLM + 10% dialyzed FBS) was determined as 462; in the experiment with NOMO1 (RPMI 5 mM glucose + 10% FBS), 452; in the experiment on NOMO1 (setting [3]), 466; with P12-Ichikawa (HPLM + 10% dialyzed FBS), 436; in the experiment with P12-Ichikawa (RPMI 5 mM glucose + 10% FBS) it was 448; with P12-Ichikawa (setting [3]), 450. Further, the results for the “AUC of viability dose-response curve” value in the experiment with SEM cells [2] (HPLM + 10% dialyzed FBS), in the experiment with SEM cells [2] (RPMI 5 mM glucose + 10% FBS) and with SEM cells [2] (setting [3]) were 462, 349 and 388, respectively.
With `CCN(CC)C(=O)C1=CC=C(C=C1)C/2=C/C3(CCNCC3)OC4=CC=CC(=C24)O`, the “AUC of viability dose-response curve” value in the experiment on NOMO1 (HPLM + 10% dialyzed FBS) was 287; in the experiment on NOMO1 (RPMI 5 mM glucose + 10% FBS), 329; in the experiment with NOMO1 (setting [3]), 345; with P12-Ichikawa (HPLM + 10% dialyzed FBS), 459; with P12-Ichikawa (RPMI 5 mM glucose + 10% FBS), 449; with P12-Ichikawa (setting [3]), 449. For the same compound, the “AUC of viability dose-response curve” value was found to be 472 in the experiment with SEM cells [2] (HPLM + 10% dialyzed FBS), 464 in the experiment on SEM cells [2] (RPMI 5 mM glucose + 10% FBS) and 464 in the experiment with SEM cells [2] (setting [3]).

For orientation: cell viability means a read-out of living cells in per cent, often relative to untreated cells.

These data come from the supplement of paper PMC11451515.
